Data on 35 molecules can be found in BindingDB's records for doi:10.1016/j.bmcl.2003.10.030 (Pfizer, 2003).

Structures are written as SMILES.

Vascular endothelial growth factor receptor 1, sequence (P17948 whole entry): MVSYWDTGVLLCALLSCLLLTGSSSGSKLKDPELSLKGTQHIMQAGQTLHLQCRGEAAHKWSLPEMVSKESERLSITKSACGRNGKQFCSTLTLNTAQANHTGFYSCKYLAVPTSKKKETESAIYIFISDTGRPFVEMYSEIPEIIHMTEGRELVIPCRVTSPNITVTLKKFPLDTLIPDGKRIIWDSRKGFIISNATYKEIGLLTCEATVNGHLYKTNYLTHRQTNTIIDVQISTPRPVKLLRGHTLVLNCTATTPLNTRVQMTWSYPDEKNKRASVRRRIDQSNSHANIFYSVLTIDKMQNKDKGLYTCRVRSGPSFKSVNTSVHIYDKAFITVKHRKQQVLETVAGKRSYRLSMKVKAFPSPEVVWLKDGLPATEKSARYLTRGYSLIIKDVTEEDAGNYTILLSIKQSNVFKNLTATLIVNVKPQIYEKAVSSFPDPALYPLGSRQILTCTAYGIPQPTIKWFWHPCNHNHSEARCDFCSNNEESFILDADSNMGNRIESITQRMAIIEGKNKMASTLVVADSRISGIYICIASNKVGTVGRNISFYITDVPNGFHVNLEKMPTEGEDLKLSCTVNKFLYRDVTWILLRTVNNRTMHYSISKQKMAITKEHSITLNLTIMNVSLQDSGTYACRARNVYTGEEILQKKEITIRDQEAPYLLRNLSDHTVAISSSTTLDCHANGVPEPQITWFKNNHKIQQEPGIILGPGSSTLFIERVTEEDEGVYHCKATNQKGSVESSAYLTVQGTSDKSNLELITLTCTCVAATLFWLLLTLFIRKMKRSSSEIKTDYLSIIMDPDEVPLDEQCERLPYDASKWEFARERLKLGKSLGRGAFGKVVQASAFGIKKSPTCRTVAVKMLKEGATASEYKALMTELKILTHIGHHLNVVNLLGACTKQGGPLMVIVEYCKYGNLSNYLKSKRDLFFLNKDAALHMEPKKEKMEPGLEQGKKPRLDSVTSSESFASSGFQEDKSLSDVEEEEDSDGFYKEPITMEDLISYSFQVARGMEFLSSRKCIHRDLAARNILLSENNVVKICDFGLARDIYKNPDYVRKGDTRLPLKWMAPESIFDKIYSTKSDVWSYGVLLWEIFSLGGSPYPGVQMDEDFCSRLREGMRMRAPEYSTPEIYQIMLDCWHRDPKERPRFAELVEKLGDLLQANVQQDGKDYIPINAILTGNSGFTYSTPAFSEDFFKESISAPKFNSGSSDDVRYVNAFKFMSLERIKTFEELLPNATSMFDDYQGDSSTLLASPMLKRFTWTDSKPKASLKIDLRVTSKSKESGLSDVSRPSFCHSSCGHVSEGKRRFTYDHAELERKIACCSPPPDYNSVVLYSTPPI

The target in one assay is Vascular endothelial growth factor receptor 1 (Homo sapiens, UniProt P17948). Briefly: ChEBML_213951. From the text:
Inhibitory activity against Vascular endothelial growth factor receptor
Molecule `c1csc(-c2cc3ncnc(Nc4ccc5[nH]ccc5c4)c3s2)c1` [(1H-Indol-5-yl)-(6-thiophen-2-yl-thieno[3,2-d]pyrimidin-4-yl)-amine] had an IC50 of 130 nM.

Target in the next assay: not listed separately
Briefly: Inhibitory activity against Vascular endothelial growth factor receptor.
Consider `Cc1cc2cc(Nc3ccnc4cc(-c5ccc(CN(C)CCO)cc5)sc34)ccc2[nH]1` [2-(Methyl-{4-[7-(2-methyl-1H-indol-5-ylamino)-thieno[3,2-b]pyridin-2-yl]-benzyl}-amino)-ethanol], for which the IC50 stood at 3 nM.
Consider `CN(C)c1ccc(Nc2ncnc3cc(-c4ccccc4)sc23)cc1` [N,N-Dimethyl-N'-(6-phenyl-thieno[3,2-d]pyrimidin-4-yl)-benzene-1,4-diamine], for which the IC50 amounted to 500 nM.
Regarding `OCCNCc1ccc(-c2cc3nccc(Nc4ccc5[nH]ccc5c4)c3s2)cc1` [2-{4-[7-(1H-Indol-5-ylamino)-thieno[3,2-b]pyridin-2-yl]-benzylamino}-ethanol], the IC50 came to 6 nM.
`Cc1cc2cc(Nc3ccnc4cc(-c5ccc(CNCCOCCO)cc5)sc34)ccc2[nH]1` [2-(2-{4-[7-(2-Methyl-1H-indol-5-ylamino)-thieno[3,2-b]pyridin-2-yl]-benzylamino}-ethoxy)-ethanol]: the 50% inhibitory concentration (IC50) was 5 nM.
Still for that read-out and setting: in the case of `CC(=O)NCCNCc1ccc(-c2cc3ncnc(Nc4ccc5[nH]ccc5c4)c3s2)cc1` [N-(2-{4-[4-(1H-Indol-5-ylamino)-thieno[3,2-d]pyrimidin-6-yl]-benzylamino}-ethyl)-acetamide] it was 4 nM.
`OCCCNCc1ccc(-c2cc3nccc(Nc4ccc5[nH]ccc5c4)c3s2)cc1` [3-{4-[7-(1H-Indol-5-ylamino)-thieno[3,2-b]pyridin-2-yl]-benzylamino}-propan-1-ol] registered an IC50 of 4 nM.
Turning to `NC(=O)c1ccc(Nc2ncnc3cc(-c4ccccc4)sc23)cc1` [4-(6-Phenyl-thieno[3,2-d]pyrimidin-4-ylamino)-benzamide], the concentration for half-maximal inhibition (IC50) is 250 nM.
The same measure, in the same setting: the result for `CCCNC(=O)c1cc2ncnc(Nc3ccc4[nH]ccc4c3)c2s1` [4-(1H-Indol-5-ylamino)-thieno[3,2-d]pyrimidine-6-carboxylic acid propylamide] reads 2000 nM.
With `c1ccc(NCCN(c2cc3ncnc(Nc4ccc5[nH]ccc5c4)c3s2)n2cccc2)cc1` [N*4*-(1H-Indol-5-yl)-N*6*-(2-phenylamino-ethyl)-N*6*-pyrrol-1-yl-thieno[3,2-d]pyrimidine-4,6-diamine], the IC50 was 43 nM.
With `Cc1cc2cc(Nc3ncnc4cc(-c5ccccc5)sc34)ccc2[nH]1` [(2-Methyl-1H-indol-5-yl)-(6-phenyl-thieno[3,2-d]pyrimidin-4-yl)-amine], the IC50 is 140 nM.
In turn, `c1ccc(CNc2ncnc3cc(-c4ccccc4)sc23)cc1` [Benzyl-(6-phenyl-thieno[3,2-d]pyrimidin-4-yl)-amine] registered a half-inhibitory concentration (IC50) above 2500 nM.
Still for that read-out and setting: the result for `O=C(Cc1cc2ncnc(Nc3ccc4[nH]ccc4c3)c2s1)c1ccccc1` [2-[4-(1H-Indol-5-ylamino)-thieno[3,2-d]pyrimidin-6-yl]-1-((E)-phenyl)-ethenol] reads 2210 nM.
Same read-out and setting: the result for `c1ccc(-c2cc3ncnc(Nc4ccc5[nH]ncc5c4)c3s2)cc1` [(1H-Indazol-5-yl)-(6-phenyl-thieno[3,2-d]pyrimidin-4-yl)-amine] reads 620 nM; that for `Cc1cc2cc(Nc3ccnc4cc(-c5ccc(CNCCCO)cc5)sc34)ccc2[nH]1` [3-{4-[7-(2-Methyl-1H-indol-5-ylamino)-thieno[3,2-b]pyridin-2-yl]-benzylamino}-propan-1-ol], 5 nM.
`c1ccc(-c2cc3ncnc(Nc4ccc5nn[nH]c5c4)c3s2)cc1` [(1H-Benzotriazol-5-yl)-(6-phenyl-thieno[3,2-d]pyrimidin-4-yl)-amine] returned an IC50 of 470 nM.
In turn, `c1nc(Nc2ccc3[nH]ccc3c2)c2sccc2n1` [(1H-Indol-5-yl)-thieno[3,2-d]pyrimidin-4-yl-amine] registered a half-inhibitory concentration (IC50) of 1410 nM.
In the case of `c1csc(-c2cc3nccc(Nc4ccc5[nH]ccc5c4)c3s2)c1` [(1H-Indol-5-yl)-(2-thiophen-2-yl-thieno[3,2-b]pyridin-7-yl)-amine], the 50% inhibitory concentration (IC50) worked out at 132 nM. This IC50 lies about 11-fold lower than the previous one.
In turn, `OCc1ccc(-c2cc3ncnc(Nc4ccc5[nH]ccc5c4)c3s2)cc1` [{4-[4-(1H-Indol-5-ylamino)-thieno[3,2-d]pyrimidin-6-yl]-phenyl}-methanol] yielded an IC50 of 56 nM.
`CC(C)(CO)NCc1ccc(-c2cc3ncnc(Nc4ccc5[nH]ccc5c4)c3s2)cc1` [2-{4-[4-(1H-Indol-5-ylamino)-thieno[3,2-d]pyrimidin-6-yl]-benzylamino}-2-methyl-propan-1-ol]: the IC50 came out at 25 nM. This IC50 is about 2.2-fold lower than that of the molecule before.
Turning to `c1ccc(Nc2ccc(Nc3ncnc4cc(-c5ccccc5)sc34)cc2)cc1` [N-Phenyl-N'-(6-phenyl-thieno[3,2-d]pyrimidin-4-yl)-benzene-1,4-diamine], 390 nM corresponded to half-maximal inhibition (IC50).
Take `O=C(c1ccccc1)c1cc2ncnc(Nc3ccc4[nH]ccc4c3)c2s1` [[4-(1H-Indol-5-ylamino)-thieno[3,2-d]pyrimidin-6-yl]-phenyl-methanone]: the IC50 is 770 nM. Against the preceding molecule, the IC50 is about 2-fold higher.
On to `CN(CCO)Cc1ccc(-c2cc3nccc(Nc4ccc5[nH]ccc5c4)c3s2)cc1` [2-({4-[7-(1H-Indol-5-ylamino)-thieno[3,2-b]pyridin-2-yl]-benzyl}-methyl-amino)-ethanol], for which the IC50 is 4 nM.
On the same count and under the same terms, the result for `Brc1cc2ncnc(Nc3ccc4[nH]ccc4c3)c2s1` [(6-Bromo-thieno[3,2-d]pyrimidin-4-yl)-(1H-indol-5-yl)-amine] reads 220 nM; that for `CNc1ccc(Nc2ncnc3cc(-c4ccccc4)sc23)cc1` [N-Methyl-N'-(6-phenyl-thieno[3,2-d]pyrimidin-4-yl)-benzene-1,4-diamine], 190 nM; that for `CC(=O)NCCNCc1ccc(-c2cc3nccc(Nc4ccc5[nH]ccc5c4)c3s2)cc1` [N-(2-{4-[7-(1H-Indol-5-ylamino)-thieno[3,2-b]pyridin-2-yl]-benzylamino}-ethyl)-acetamide], 24 nM.
`Cc1cc2cc(Nc3ccnc4cc(-c5ccc(CN6CCOCC6)cc5)sc34)ccc2[nH]1` [(2-Methyl-1H-indol-5-yl)-[2-(4-morpholin-4-ylmethyl-phenyl)-thieno[3,2-b]pyridin-7-yl]-amine]: the IC50 came out at 5 nM.
Molecule `Cn1ccc2cc(Nc3ncnc4cc(-c5ccccc5)sc34)ccc21` [(1-Methyl-1H-indol-5-yl)-(6-phenyl-thieno[3,2-d]pyrimidin-4-yl)-amine] returned an IC50 above 2500 nM.
`c1cc(Nc2ccc3[nH]ccc3c2)c2sc(-c3ccc(CN4CCOCC4)cc3)cc2n1` [(1H-Indol-5-yl)-[2-(4-morpholin-4-ylmethyl-phenyl)-thieno[3,2-b]pyridin-7-yl]-amine] showed a 50% inhibitory concentration (IC50) of 5 nM.
`Nc1ncnc2cc(-c3ccccc3)sc12` [6-Phenyl-thieno[3,2-d]pyrimidin-4-ylamine] returned an IC50 above 1250 nM.
`NCc1ccc(-c2cc3ncnc(Nc4ccc5[nH]ccc5c4)c3s2)cc1` [[6-(4-Aminomethyl-phenyl)-thieno[3,2-d]pyrimidin-4-yl]-(1H-indol-5-yl)-amine]: the midpoint of inhibition, the IC50, lay at 18 nM. This counts as double-digit nanomolar.
Turning to `Cc1c[nH]c2ccc(Nc3ncnc4cc(-c5ccccc5)sc34)cc12` [(3-Methyl-1H-indol-5-yl)-(6-phenyl-thieno[3,2-d]pyrimidin-4-yl)-amine], half-maximal inhibition (IC50) was put at 290 nM.
As to `Cc1cc2cc(Nc3ccnc4cc(-c5ccc(CNCCO)cc5)sc34)ccc2[nH]1` [2-{4-[7-(2-Methyl-1H-indol-5-ylamino)-thieno[3,2-b]pyridin-2-yl]-benzylamino}-ethanol], half-maximal inhibition (IC50) was put at 4 nM.

Target in a further assay: not listed separately
Described as above. This is another data set of the same source.
Regarding `c1ccc(CCCN(c2cc3ncnc(Nc4ccc5[nH]ccc5c4)c3s2)n2ccnc2)cc1` [N*6*-Imidazol-1-yl-N*4*-(1H-indol-5-yl)-N*6*-(3-phenyl-propyl)-thieno[3,2-d]pyrimidine-4,6-diamine], 4 nM corresponded to half-maximal inhibition (IC50).
Turning to `c1ccc(-c2cc3ncnc(Nc4ccc5[nH]ccc5c4)c3s2)cc1` [(1H-Indol-5-yl)-(6-phenyl-thieno[3,2-d]pyrimidin-4-yl)-amine], inhibition was half-maximal at 48 nM (IC50).
